One assay concerns A2780. Put plainly: Anti-proliferative effect (CellTiter-Glo, 72 h), A2780. The note with it: A2780 cells, median, read-out: IC50 antiproliferation assay A2780 [M] (median). It is filed as cell-based. A digest of the protocol:
(§1)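 Anti-proliferative activity is derived from ATP-based luminescence (CellTiter-Glo) in cells exposed to compound for 72 h at 37 °C, set against a time zero plate read at seeding.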

Assay [1] has as its system SUDHL10. As to the kind of experiment: Induction of cytotoxicity (CellTiter-Glo, 5 h), SUDHL10. As to conditions: Homo sapiens, SU-DHL10, 5 h, read-out: Cytotox SUDHL10 [M] (median), SUDHL10 cells, cytotoxicity induction, CellTiter-Glo, 5 h incubation, median.
For assay [2], the system named is SUDHL5. Put plainly: Anti-proliferative effect (CellTiter-Glo, 72 h), SUDHL5. It is filed as cell-based. As to conditions: Homo sapiens, SU-DHL-5, 72 h, SUDHL5 cells, antiproliferation, 72 h incubation, median, read-out: Antiproli SUDHL5 [M] (median). A digest of the protocol:
as §1

For assay [3], the system named is SUDHL10. Put plainly: Anti-proliferative effect (CellTiter-Glo, 72 h), SUDHL10. It is filed as cell-based. The note with it: Homo sapiens, SU-DHL10, 72 h, SUDHL10 cells, antiproliferation, 72 h incubation, median, read-out: Antiproli SUDHL10 [M] (median). A digest of the protocol: as §1
The target of a further assay is MCL-1 (Homo sapiens, UniProt Q07820). As to the kind of experiment: Protein-protein interaction assay MCL-1/Noxa BH3 peptide (MCL-1 assay), TR-FRET. It is filed as binding. The note with it: MBP-MCL-1 / Noxa BH3-derived peptide, median. A digest of the protocol:
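MBP-MCL-1 (1 nM final) was preincubated 10 min at 22 °C with compounds (11 concentrations, 0.1 nM–20 μM, duplicates) in Tris pH 7 buffer with NaCl, KF, Tween-20, DTT and BGG. After 1 h at 22 °C in the dark plus overnight at 4 °C, anti-MBP Eu-cryptate/streptavidin-XL665 TR-FRET was read; IC50 came from a 4-parameter fit.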

Assay [4] has as its system SUDHL10. Put plainly: Induction of caspase-3/7 activity (Caspase-Glo 3/7), SUDHL10. It is filed as cell-based. The note with it: Homo sapiens, SU-DHL10, 3 h, caspase-3/7 induction, SUDHL10 cells, 3 h treatment; median. The method in brief:
(§2)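 Caspase-Glo 3/7 luminescence measured after 3 h compound exposure at 37 °C in SUDHL10 and SUDHL5 cells. EC50 values come from background-corrected signals, with curve bottom set to 1 and plateau set to maximal induction by the reference compound.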

Assay [5] relates to SUDHL5. Put plainly: Induction of caspase-3/7 activity (Caspase-Glo 3/7), SUDHL5. The note with it: Homo sapiens, SU-DHL-5, 3 h, caspase-3/7 induction, SUDHL5 cells, 3 h treatment; median. It is filed as cell-based. The method in brief: as §2
Assay [6] concerns SUDHL5. Put plainly: Induction of cytotoxicity (CellTiter-Glo, 5 h), SUDHL5. The note with it: Homo sapiens, SU-DHL-5, 5 h, read-out: Cytotox SUDHL5 [M] (median), SUDHL5 cells, cytotoxicity induction, CellTiter-Glo, 5 h incubation, median.
The next assay concerns OPM2. Put plainly: Anti-proliferative effect (CellTiter-Glo, 72 h), OPM2. It is filed as cell-based. As to conditions: Homo sapiens, OPM-2, 72 h, OPM2 cells, median, read-out: IC50 antiproliferation assay OPM2 [M] (median). The method in brief: as §1

Drawing on patent US10981932B2, “Macrocyclic indole derivatives” (Bayer Aktiengesellschaft, priority 2016, dated 2021), this text covers IC50 and EC50 for eleven compounds.

Where a name gives a salt, the structure may show the parent alone. Read-outs that look alike come from different tables or passages of the source.

Sequence of MCL-1 (Q07820 whole entry): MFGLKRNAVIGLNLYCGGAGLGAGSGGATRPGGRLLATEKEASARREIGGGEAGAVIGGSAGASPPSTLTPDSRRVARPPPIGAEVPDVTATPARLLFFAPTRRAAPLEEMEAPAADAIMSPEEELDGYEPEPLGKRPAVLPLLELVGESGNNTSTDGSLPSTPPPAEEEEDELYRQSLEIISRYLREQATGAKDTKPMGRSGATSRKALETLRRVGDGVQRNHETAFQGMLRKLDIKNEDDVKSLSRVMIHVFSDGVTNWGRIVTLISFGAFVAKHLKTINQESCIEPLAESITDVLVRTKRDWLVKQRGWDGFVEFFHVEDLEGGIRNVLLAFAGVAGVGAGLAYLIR

Consider `CC(C)OCc1nn(C)c2c1-c1cccc3c(CCCOc4cccc5ccccc45)c(C(=O)O)n(c13)CCCCN(C)C2` (racemic) [Example 1-73, (rac)-1,14-dimethyl-7-[3-(naphthalen-1-yloxy)propyl]-3-[(propan-2-yloxy)methyl]-10,11,12,13,14,15-hexahydro-1H-pyrazolo[3′,4′:8,9][1,6]diazacycloundecino[10,11,1-hi]indole-8-carboxylic Acid], for which the IC50 in the assay on A2780 (Homo sapiens, A2780, 72 h) worked out at 1.82e-05 M; in the assay with SUDHL10 [1], 1.53e-05 M; with SUDHL5 [2] it was 3.68e-06 M; in the assay on SUDHL10 [3] it was 9.04e-06 M; against MCL-1, 0.00713 µM; with SUDHL5 [6], 7e-06 M. Besides, the IC50 in the assay with OPM2 is 1.17e-05 M. Moreover, the EC50 came out at 11.9 µM in the assay with SUDHL10 [4] and 6.83 µM in the assay on SUDHL5 [5].
As for `CN1CCCn2c(C(=O)O)c(CCCOc3cccc4ccccc34)c3cccc(c32)-c2cnn(C)c2C1` (racemic) [Example 1-96, (rac)-7,9-dimethyl-1-[3-(naphthalen-1-yloxy)propyl]-4,5,6,7,8,9-hexahydropyrazolo[3′,4′:7,8][1,5]diazecino[9,10,1-hi]indole-2-carboxylic Acid], the IC50 in the assay with A2780 (Homo sapiens, A2780, 72 h) is 2.05e-05 M; in the assay on SUDHL10 [1], 2.95e-05 M; in the assay with SUDHL5 [2] it was above 3.3e-05 M; with SUDHL10 [3], 1.44e-05 M; against MCL-1 it was 0.0173 µM; in the assay on SUDHL5 [6], 1.84e-05 M. Further, in the assay with OPM2, the IC50 is above 3.3e-05 M. In addition, the EC50 with SUDHL10 [4] is above 33 µM; with SUDHL5 [5] it was 23.9 µM.
`Cn1nc(COc2ccc(N3CCN(CCC(C)(C)O)CC3)cc2)c2c1COCCCCn1c(C(=O)O)c(CCCOc3cccc4ccccc34)c3cccc-2c31` (racemic) [Example 1-121, (rac)-3-({4-[4-(3-hydroxy-3-methylbutyl)piperazin-1-yl]phenoxy}methyl)-1-methyl-7-[3-(naphthalen-1-yloxy)propyl]-1,10,11,12,13,15-hexahydropyrazolo[4′,3′:9,10][1,6]oxazacycloundecino[8,7,6-hi]indole-8-carboxylic Acid Ammonium Salt]: the IC50 was 9.61e-06 M in the assay with A2780 (Homo sapiens, A2780, 72 h); 6.21e-06 M in the assay with SUDHL10 [1]; 5.79e-06 M in the assay with SUDHL5 [2]; 5.07e-06 M with SUDHL10 [3]; 0.00436 µM against MCL-1; 3.07e-06 M in the assay with SUDHL5 [6]. Also, in the assay with OPM2, the IC50 was found to be 8.33e-06 M. Moreover, the figures for the EC50 with SUDHL10 [4] and in the assay with SUDHL5 [5] were 8.04 µM and 2.66 µM, respectively.
For `Cc1cc(OCCCc2c(C(=O)O)n3c4c(cccc24)-c2c(C)nn(C)c2COCCCC3)cc(C)c1Cl` (racemic) [Example 009, (rac)-7-[3-(4-chloro-3,5-dimethylphenoxy)propyl]-1,3-dimethyl-1,10,11,12,13,15-hexahydropyrazolo[4′,3′:9,10][1,6]oxazacycloundecino[8,7,6-hi]indole-8-carboxylic Acid], the IC50 was 2.25e-05 M in the assay on A2780 (Homo sapiens, A2780, 72 h); 2.04e-05 M with SUDHL10 [1]; 3.62e-06 M in the assay on SUDHL5 [2]; 8.05e-06 M in the assay with SUDHL10 [3]; 0.00632 µM against MCL-1; 1.11e-05 M in the assay with SUDHL5 [6]. Besides, the IC50 in the assay with OPM2 came out at 2.1e-05 M. The 50% effective concentration (EC50) is 17.8 µM in the assay with SUDHL10 [4] and 9.89 µM with SUDHL5 [5].
Take `Cc1nn(C)c2c1-c1cccc3c(CCCOc4cccc5cc(F)ccc45)c(C(=O)O)n(c13)CCCCOC2` (racemic) [Example 018, (rac)-7-{3-[(6-fluoronaphthalen-1-yl)oxy]propyl}-1,3-dimethyl-1,10,11,12,13,15-hexahydropyrazolo[4′,3′:9,10][1,6]oxazacycloundecino[8,7,6-hi]indole-8-carboxylic Acid]: the IC50 in the assay on A2780 (Homo sapiens, A2780, 72 h) was above 3.3e-05 M; with SUDHL10 [1] it was 9.04e-06 M; in the assay on SUDHL5 [2] it was 2.32e-06 M; in the assay with SUDHL10 [3], 7.88e-06 M; against MCL-1 it was 0.00453 µM; in the assay with SUDHL5 [6], 3.77e-06 M. In the assay on OPM2, the IC50 was determined as 9.67e-06 M. Besides, the 50% effective concentration (EC50) with SUDHL10 [4] amounted to 9.64 µM; with SUDHL5 [5], 4.43 µM.
On to `Cc1nn(C)c2c1-c1cccc3c(CCCOc4ccc(F)c5ccccc45)c(C(=O)O)n(c13)CCCCOC2` (racemic) [Example 021, (rac)-7-{3-[(4-fluoronaphthalen-1-yl)oxy]propyl}-1,3-dimethyl-1,10,11,12,13,15-hexahydropyrazolo[4′,3′:9,10][1,6]oxazacycloundecino[8,7,6-hi]indole-8-carboxylic Acid], for which the IC50 was 2.52e-05 M in the assay on A2780; above 3.3e-05 M with A2780 (Homo sapiens, A2780, 72 h); above 3.3e-05 M in the assay with SUDHL10 [1]; 2.4e-05 M in the assay on SUDHL5 [2]; 5.25e-06 M in the assay with SUDHL10 [3]; 0.011 µM against MCL-1. Also, the results for the IC50 in the assay with SUDHL5 [6] and with OPM2 were 1.82e-05 M and above 3.3e-05 M, respectively. Moreover, the values for the EC50 in the assay on SUDHL10 [4] and in the assay with SUDHL5 [5] were above 33 µM and 13.4 µM, respectively.
`COCCn1nc2c(c1C)-c1cccc3c(CCCOc4cccc5ccccc45)c(C(=O)O)n(c13)CCCN(C)C2` (racemic) [Example 052, (rac)-10-(2-methoxyethyl)-7,11-dimethyl-1-[3-(naphthalen-1-yloxy)propyl]-4,5,6,7,8,10-hexahydropyrazolo[3′,4′:7,8][1,5]diazecino[9,10,1-hi]indole-2-carboxylic Acid]: the IC50 with A2780 (Homo sapiens, A2780, 72 h) stood at 7.41e-06 M; in the assay with SUDHL10 [1], 2.97e-05 M; with SUDHL5 [2], 2.15e-06 M; in the assay with SUDHL10 [3], 1.3e-05 M; against MCL-1, 0.028 µM; in the assay with SUDHL5 [6], 2.68e-05 M. In addition, the IC50 in the assay on OPM2 was 3.07e-05 M. In addition, the figures for the EC50 in the assay with SUDHL10 [4] and with SUDHL5 [5] were above 33 µM and 29.9 µM, respectively.
For `Cc1c2c(nn1CCN1CCOCC1)COCCCCn1c(C(=O)O)c(CCCOc3cccc4ccccc34)c3cccc-2c31` (racemic) [Example 053, (rac)-3-methyl-2-[2-(morpholin-4-yl)ethyl]-7-[3-(naphthalen-1-yloxy)propyl]-2,10,11,12,13,15-hexahydropyrazolo[4′,3′:9,10][1,6]oxazacycloundecino[8,7,6-hi]indole-8-carboxylic Acid], the IC50 in the assay on A2780 (Homo sapiens, A2780, 72 h) was above 3.3e-05 M; in the assay with SUDHL10 [1], 7.75e-06 M; with SUDHL5 [2], 1.47e-06 M; in the assay on SUDHL10 [3], 7.88e-06 M; on MCL-1, 0.00341 µM; in the assay with SUDHL5 [6] it was 3e-06 M. In addition, the IC50 in the assay on OPM2 came to 1.11e-05 M. Also, the EC50 worked out at 5.67 µM in the assay with SUDHL10 [4] and 2.51 µM in the assay on SUDHL5 [5].
`Cc1c2c(nn1CCN1CCOCC1)CN(C)CCCn1c(C(=O)O)c(CCCOc3cccc4ccccc34)c3cccc-2c31` (racemic) [Example 059, (rac)-7,11-dimethyl-10-[2-(morpholin-4-yl)ethyl]-1-[3-(naphthalen-1-yloxy)propyl]-4,5,67,8,10-hexahydropyrazolo[3′,4′:7,8][1,5]diazecino[9,10,1-hi]indole-2-carboxylic Acid]: the IC50 came to 2.91e-05 M in the assay with A2780 (Homo sapiens, A2780, 72 h); 1.9e-05 M with SUDHL10 [1]; 6.96e-06 M with SUDHL5 [2]; 1.99e-05 M in the assay on SUDHL10 [3]; 0.0239 µM against MCL-1; 2.54e-05 M in the assay with SUDHL5 [6]. For the same compound, in the assay with OPM2, the IC50 came to 2.52e-05 M. Besides, the EC50 in the assay on SUDHL10 [4] came out at 27.7 µM; in the assay with SUDHL5 [5] it was 15.9 µM.
Turning to `Cc1c2c(nn1C)COC/C=C\Cn1c(C(=O)O)c(CCCOc3cccc4ccccc34)c3cccc-2c31` (racemic) [Example 062, (rac)-(11Z)-2,3-dimethyl-7-[3-(naphthalen-1-yloxy)propyl]-2,10,13,15-tetrahydropyrazolo[4′,3′:9,10][1,6]oxazacycloundecino[8,7,6-hi]indole-8-carboxylic Acid], the IC50 in the assay on A2780 (Homo sapiens, A2780, 72 h) was 2.26e-05 M; with SUDHL10 [1] it was 2.43e-05 M; with SUDHL5 [2] it was 4.17e-06 M; in the assay with SUDHL10 [3], 4.49e-06 M; against MCL-1, 0.0131 µM; with SUDHL5 [6], 6.67e-06 M. In addition, the IC50 in the assay with OPM2 stood at 1.67e-05 M. In addition, the EC50 amounted to 18.1 µM in the assay on SUDHL10 [4] and 5.9 µM in the assay with SUDHL5 [5].
`Cc1c2c(nn1C)COCCCn1c(C(=O)O)c(CCCOc3cccc4ccccc34)c3cccc-2c31` (racemic) [Example 063, (rac)-10,11-dimethyl-1-[3-(naphthalen-1-yloxy)propyl]-5,6,8,10-tetrahydro-4H-pyrazolo[4′,3′:8,9][1,5]oxazecino[7,6,5-hi]indole-2-carboxylic Acid]: the IC50 is 2.02e-05 M in the assay on A2780 (Homo sapiens, A2780, 72 h); 1.16e-05 M in the assay with SUDHL10 [1]; 3.98e-06 M in the assay on SUDHL5 [2]; 5.35e-06 M in the assay on SUDHL10 [3]; 0.0106 µM against MCL-1; 7.73e-06 M in the assay on SUDHL5 [6]. The IC50 with OPM2 was determined as 1.36e-05 M. Further, the EC50 worked out at 16.5 µM with SUDHL10 [4] and 7.71 µM with SUDHL5 [5].
